Assay results as given in US6780869B1, “Pyrimidine derivatives” (SmithKline Beecham Corporation, priority 1999, dated 2004).

What was measured:
human COX-2 = molecular target: T1, human COX-2 (Homo sapiens, UniProt P35354); experiment: Cell based assay, COS cells stably transfected with human COX-2, PGE2 release; conditions: inhibition of PGE2 release, 30 μM arachidonic acid
T1 construct: expressed in transfected cells; host or cells: COS cells (stably transfected)
T1 sequence (P35354 18-604): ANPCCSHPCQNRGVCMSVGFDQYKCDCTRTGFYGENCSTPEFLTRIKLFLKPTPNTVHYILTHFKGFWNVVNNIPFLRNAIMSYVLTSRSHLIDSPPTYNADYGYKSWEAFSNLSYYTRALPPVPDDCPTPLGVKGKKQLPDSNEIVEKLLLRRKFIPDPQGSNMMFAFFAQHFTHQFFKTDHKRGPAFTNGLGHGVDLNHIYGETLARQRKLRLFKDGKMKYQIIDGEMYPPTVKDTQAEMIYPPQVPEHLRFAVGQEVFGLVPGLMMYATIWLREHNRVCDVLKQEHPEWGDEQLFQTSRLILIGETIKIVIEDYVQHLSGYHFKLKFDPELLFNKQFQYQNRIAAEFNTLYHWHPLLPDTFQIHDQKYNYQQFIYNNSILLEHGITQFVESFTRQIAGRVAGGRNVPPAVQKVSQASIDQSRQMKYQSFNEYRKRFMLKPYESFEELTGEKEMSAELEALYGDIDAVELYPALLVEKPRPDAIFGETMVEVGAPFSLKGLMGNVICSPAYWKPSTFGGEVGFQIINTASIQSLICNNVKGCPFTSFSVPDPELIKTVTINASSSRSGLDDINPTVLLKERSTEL
Description: 24 Hours prior to experiment, COS cells were transferred from the 175 cm^2 flasks in which they were grown, onto 24-well cell culture plates using the following procedure. The incubation medium (Dulbecco's modified eagles medium (DMEM) supplemented with heat-inactivated foetal calf serum (10% v/v), penicillin (100 IU/ml), streptomycin (100 μg/ml) and geneticin (600 μg/ml)) was removed from a flask of confluent cells (1 flask at confluency contains approximately 1×10^7 cells). 5 ml of phosphate buffered saline (PBS) was added to the flask to wash the cells. […] The flask was then removed from the incubator and 5 ml of fresh incubation medium was added. The contents of the flask was transferred to a 250 ml sterile container and the volume of incubation medium subsequently made up to 100 ml. 1 ml cell suspension was pipetted into each well of 4×24-well cell culture plates. The plates were then placed in an incubator (37° C., 95% air/5% CO2) overnight. If more than 1 flask of cells were required, the cells from the individual flasks were combined before being dispensed into the 24-well plates.
Following the overnight incubation, the incubation medium was completely removed from the 24-well cell culture plates and replaced with 250 μl fresh DMEM (37° C.). The test compounds were made up to 250× the required test concentration in DMSO and were added to the wells in a volume of 1 μl. Plates were then mixed gently by swirling and then placed in an incubator for 1 hour (37° C., 95% air/5% CO2). […] Plates were then incubated for a further 10 minutes, after which the incubation medium was removed from each well of the plates and stored at −20° C., prior to determination of prostaglandin E2 (PGE2) levels using enzyme immunoassay. […] The selectivity ratio of inhibition of COX-1 versus COX-2 was calculated by comparing respective IC50 values.

COX-1 [1] = molecular target: T2, COX-1 (Homo sapiens, UniProt P23219); experiment: Cell based assay, COS cells stably transfected with human COX-1, PGE2 release; design: expressed in transfected cells; host or cells: COS cells (stably transfected); conditions: inhibition of PGE2 release, 30 μM arachidonic acid
Description: Inhibitory activity against human COX-1 and COX-2 was assessed in COS cells which had been stably transfected with EDNA for human COX-1 and human COX-2. 24 Hours prior to experiment, COS cells were transferred from the 175 cm^2 flasks in which they were grown, onto 24-well cell culture plates using the following procedure. The incubation medium (Dulbecco's modified eagles medium (DMEM) supplemented with heat-inactivated foetal calf serum (10% v/v), penicillin (100 IU/ml), streptomycin (100 μg/ml) and geneticin (600 μg/ml)) was removed from a flask of confluent cells (1 flask at confluency contains approximately 1×10^7 cells). 5 ml of phosphate buffered saline (PBS) was added to the flask to wash the cells. Having discarded the PBS, cells were then incubated with 5 ml trypsin for 5 minutes in an incubator (37°). The flask was then removed from the incubator and 5 ml of fresh incubation medium was added. The contents of the flask was transferred to a 250 ml sterile container and the volume of incubation medium subsequently made up to 100 ml. 1 ml cell suspension was pipetted into each well of 4×24-well cell culture plates. The plates were then placed in an incubator (37° C., 95% air/5% CO2) overnight. If more than 1 flask of cells were required, the cells from the individual flasks were combined before being dispensed into the 24-well plates.
Following the overnight incubation, the incubation medium was completely removed from the 24-well cell culture plates and replaced with 250 μl fresh DMEM (37° C.). The test compounds were made up to 250× the required test concentration in DMSO and were added to the wells in a volume of 1 μl. Plates were then mixed gently by swirling and then placed in an incubator for 1 hour (37° C., 95% air/5% CO2). Following the incubation period, 10 μl of arachidonic acid (750 μM) was added to each well to give a final arachidonic acid concentration of 30 μM. […] The selectivity ratio of inhibition of COX-1 versus COX-2 was calculated by comparing respective IC50 values.

microsomal h-COX2 = molecular target: T3, microsomal h-COX2 (Homo sapiens, UniProt P35354); experiment: Microsomal assay, microsomal preparation from baculovirus infected SF9 cells, PGE2 by EIA; format: biochemical; conditions: 0.1 μM arachidonic acid, read-out: COX-2: IC50
T3 construct: made in house; host or cells: baculovirus infected SF9 cells (microsomal preparation)
T3 sequence (P35354 18-604): T1 sequence (P35354 18-604)
Description: Inhibitory activity against microsomal h-COX2 was assessed against a microsomal preparation from baculovirus infected SF9 cells. An aliquot of microsomal preparation was thawed slowly on ice and a 1/40,000 dilution prepared from it into the assay buffer (sterile water, degassed with argon containing 100 mM HEPES (pH 7.4), 10 mM EDTA (pH7.4), 1 mM phenol, 1 mM reduced glutathione, 20 mg/ml gelatin and 0.001 mM Hematin). Once diluted the enzyme solution was then sonicated for 5 seconds (Branson sonicator, setting 4, 1 cm tip) to ensure a homogeneous suspension. 155 μl enzyme solution was then added to each well of a 96-well microtitre plate containing either 5 μl test compound (40× required test concentration) or 5 μl DMSO for controls. Plates were then mixed and incubated at room temperature for 1 hour. Following the incubation period, 40 μl of 0.5 μM arachidonic acid was added to each well to give a final concentration of 0.1 μM. Plates were then mixed and incubated for exactly 10 minutes (room temperature) prior to addition of 25 μl 1M HCl (hydrochloric acid) to each well to stop the reaction. 25 μl of 1M NaOH (sodium hydroxide) was then added to each well to neutralise the solution prior to determination of PGE2 levels by enzyme immunoassay (EIA).

COX-1 [2] = molecular target: T2, COX-1; experiment: Microsomal assay, COX-1; format: biochemical

T2 sequence (P23219 24-599): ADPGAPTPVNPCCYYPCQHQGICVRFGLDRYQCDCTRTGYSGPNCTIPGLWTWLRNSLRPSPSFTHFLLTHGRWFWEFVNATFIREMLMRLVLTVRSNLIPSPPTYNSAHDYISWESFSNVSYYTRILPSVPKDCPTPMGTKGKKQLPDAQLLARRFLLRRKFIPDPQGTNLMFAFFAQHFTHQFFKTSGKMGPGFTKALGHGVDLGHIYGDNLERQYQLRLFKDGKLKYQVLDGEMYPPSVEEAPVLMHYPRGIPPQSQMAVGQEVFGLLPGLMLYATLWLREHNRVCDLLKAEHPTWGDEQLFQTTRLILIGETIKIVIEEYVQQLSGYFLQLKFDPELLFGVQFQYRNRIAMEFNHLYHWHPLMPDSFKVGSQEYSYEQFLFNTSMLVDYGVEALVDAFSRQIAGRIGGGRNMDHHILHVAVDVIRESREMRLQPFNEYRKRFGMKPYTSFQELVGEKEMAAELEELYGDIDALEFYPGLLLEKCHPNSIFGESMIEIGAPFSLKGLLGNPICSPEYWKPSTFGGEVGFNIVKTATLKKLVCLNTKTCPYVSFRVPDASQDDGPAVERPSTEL

| SMILES | IC50 (human COX-2) | IC50 (COX-1 [1]) | IC50 (microsomal h-COX2) | IC50 (COX-1 [2]) |
| --- | --- | --- | --- | --- |
| CS(=O)(=O)c1ccc(-c2cc(C(F)(F)F)nc(NC3CCCC3)n2)cc1 [Example 1, N-cyclopentyl-4-[4-(methylsulfonyl)phenyl]-6-(trifluoromethyl)pyrimidin-2-amine] | 0.1 nM | > 24600 nM | – | – |
| CS(=O)(=O)c1ccc(-c2cc(C(F)(F)F)nc(NC3CCCCC3)n2)cc1 [Example 2, N-cyclohexyl-4-[4-(methylsulfonyl)phenyl]-6-(trifluoromethyl)pyrimidin-2-amine] | 0.5 nM | > 58400 nM | – | – |
| CC(C)CNc1nc(-c2ccc(S(C)(=O)=O)cc2)cc(C(F)(F)F)n1 [Example 8, N-isobutyl-4-[4-(methylsulfonyl)phenyl]-6-(trifluoromethyl)pyrimidin-2-amine] | 2 nM | > 66000 nM | 12 nM | > 100000 nM |
| CS(=O)(=O)c1ccc(-c2cc(C(F)(F)F)nc(NCC3CCC3)n2)cc1 [Example 31, N-(cyclobutylmethyl)-4-[4-(methylsulfonyl)phenyl]-6-(trifluoromethyl)pyrimidin-2-amine] | – | – | < 1 nM | > 100000 nM |
